Results as given in patent US20180354962A1, “[{[2,3-Dihydro-1H-inden-1-yl]amino}-2H,3H-furo[3,2-b]pyridin-3-yl]acetic acids, pharmaceutical compositions and uses thereof” (Boehringer Ingelheim International GmbH, priority 2015, published 2018).
≈ marks a conversion by molar mass, not a printed value.

Columns and labels:
[1] = biological target: T1, cytochrome P450 2C8-isoenzyme (Homo sapiens, UniProt P10632); test: Inhibition of CYP-2C8 (amodiaquine deethylation, human liver microsomes); format: in vitro ADME; conditions: human liver microsomes 0.05 mg/mL, amodiaquine 1 μM, 37° C.
T1 construct: is assayed at 37° C. with human liver microsomes; from tissue; host or cells: human liver microsomes
T1 sequence (P10632 1-490): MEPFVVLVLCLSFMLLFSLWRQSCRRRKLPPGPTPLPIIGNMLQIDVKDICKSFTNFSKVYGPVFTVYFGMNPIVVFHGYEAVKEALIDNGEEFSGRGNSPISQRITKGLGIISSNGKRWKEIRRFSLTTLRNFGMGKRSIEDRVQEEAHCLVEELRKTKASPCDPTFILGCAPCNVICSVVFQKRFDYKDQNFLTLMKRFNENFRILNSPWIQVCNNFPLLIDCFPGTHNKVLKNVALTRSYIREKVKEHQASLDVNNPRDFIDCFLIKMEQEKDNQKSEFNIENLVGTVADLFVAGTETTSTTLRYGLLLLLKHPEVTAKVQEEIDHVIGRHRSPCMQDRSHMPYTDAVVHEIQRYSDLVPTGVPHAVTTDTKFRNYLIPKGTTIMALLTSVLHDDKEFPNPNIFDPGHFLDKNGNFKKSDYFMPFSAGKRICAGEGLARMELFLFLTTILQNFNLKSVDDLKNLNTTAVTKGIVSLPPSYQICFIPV
Procedure: All assays are carried out on a robotic system in 96 well plates. The final incubation volume contains TRIS buffer (0.1 M), MgCl2 (5 mM), human liver microsomes (0.05 mg/mL), amodiaquine (1 μM) and the test compound at five different concentrations or no compound (high control) in duplicate (e.g. highest concentration 10-50 μM with subsequent serial 1:4 dilutions). Following a short preincubation period, reactions are started with the cofactor (NADPH, 1 mM) and stopped by cooling the incubation down to 8° C. and subsequently by addition of one volume of acetonitrile. An internal standard solution—the stable isotope d5-desethylamodiaquine—is added after quenching of incubations. Peak area analyte (=metabolite formed) and internal standard is determined by LC-MS/MS. The resulting peak area ratio analyte to internal standard in these incubations is compared to a control activity containing no test compound. Within each of the assay runs, the IC50 of a positive control inhibitor (Montelukast) is determined. Experimental IC50 values are calculated by least square regression according to the following equation: % control activity=(100% control activity/(1+(I/IC50)S))−B with I=inhibitor concentration; S=slope factor; B=background activity (lower plateau of the inhibition curve) If the inhibition of the reaction is already >50% at the lowest concentration of the test compound, the IC50 is assigned “<lowest concentration tested” (usually <0.4 μM). If the inhibition of the reaction is still <50% at the highest concentration of the test compound, the IC50 is assigned “>highest concentration tested” (usually >50 μM).

human GPR40 receptor = human GPR40 receptor (Homo sapiens, UniProt O14842); test: IP1 accumulation measurements using the IPOne assay system; format: cell-based; conditions: 1321N1 cells stably expressing human GPR40; 1 h stimulation at 37° C.
Procedure: IP1 accumulation measurements using the IPOne assay system—1321N1 cells stably expressing human GPR40 receptor (Euroscreen, Belgium) are seeded 24 h before the assay in white 384-well plates in culture medium containing 10% FCS, 1% Na-Pyruvate and 400 μg/mL G418. IP1 is assayed according to the manufacturer's description (Cisbio Bioassays, France). In brief, the assay is started by substitution of the culture medium by stimulation buffer (Hepes 10 mM, CaCl2 1 mM, MgCl2 0.5 mM, KCl 4.2 mM, NaCl 146 mM, glucose 5.5 mM and LiCl 50 mM, pH 7.4). Cells are stimulated for 1 h at 37° C., 5% CO2 by addition of the compounds that are diluted in stimulation buffer containing LiCl. Assays are stopped by adding HTRF-conjugates (IP1-d2 and Anti-IP1 cryptate Tb) and lysis buffer, provided by the manufacturer. After an incubation time of 1 h at room temperature plates are measured using an EnVision™, Perkin Elmer. The obtained fluorescence ratios at 665/615 […] are then used to calculate the pEC50 values using Assay Explorer 3.3 Software (Accelrys, Inc.) by interpolation using an IP1 reference curve and subsequent sigmoidal curve fitting allowing for a variable hill slope.

[2] = Aqueous solubility from DMSO stock, LC-UV; format: physicochemical; conditions: aqueous buffer, kinetic from dmso stock; buffer pH 2.2, 24 h shaking, 2.5% DMSO
Procedure: The aqueous solubility of the compounds of the invention is determined by comparing the amount dissolved in buffer to the amount in an acetonitrile/water (1/1) solution. Starting from a 10 mM DMSO stock solution aliquots are diluted with acetonitrile/water (1/1) or buffer, respectively. After 24 h of shaking, the solutions are filtrated and analyzed by LC-UV. The amount dissolved in buffer is compared to the amount in the acetonitrile solution. Solubility is usually being measured from 0.001 to 0.125 mg/mL at a DMSO concentration of 2.5%. If more than 90% of the compound is dissolved in buffer, the value is marked with “>”.

CYP2C9 = biological target: T2, CYP2C9 (Homo sapiens, UniProt P11712); test: Inhibition of CYP-2C9 (diclofenac hydroxylation, human liver microsomes); format: in vitro ADME; conditions: probe diclofenac (10 μM), hydroxylation, human liver microsomes 0.1 mg/mL, 37° C.
T2 construct: from tissue; host or cells: human liver microsomes
Procedure: All assays are carried out on a robotic system in 96 well plates. The final incubation volume contains TRIS buffer (0.1 M), MgCl2 (5 mM), human liver microsomes (0.1 mg/mL), diclofenac (10 μM) and the test compound at five different concentrations or no compound (high control) in duplicate (e.g. highest concentration 10-50 μM with subsequent serial 1:4 dilutions). Following a short preincubation period, reactions are started with the cofactor (NADPH, 1 mM) and stopped by cooling the incubation down to 8° C. and subsequently by addition of one volume of acetonitrile. An internal standard solution—the stable isotope 13C6-hydroxydiclofenac—is added after quenching of incubations. Peak area analyte (=metabolite formed) and internal standard is determined by LC-MS/MS. The resulting peak area ratio analyte to internal standard in these incubations is compared to a control activity containing no test compound. Within each of the assay runs, the IC50 of a positive control inhibitor (sulfaphenazole) is determined. Experimental IC50 values are calculated by least square regression according to the following equation: % control activity=(100% control activity/(1+(I/IC50)S)))−B with I=inhibitor concentration S=slope factor B=background activity (lower plateau of the inhibition curve) If the inhibition of the reaction is already >50% at the lowest concentration of the test compound, the IC50 is assigned “<lowest concentration tested” (usually <0.4 μM). If the inhibition of the reaction is still <50% at the highest concentration of the test compound, the IC50 is assigned “>highest concentration tested” (usually >50 μM).

T2 sequence (P11712 whole entry): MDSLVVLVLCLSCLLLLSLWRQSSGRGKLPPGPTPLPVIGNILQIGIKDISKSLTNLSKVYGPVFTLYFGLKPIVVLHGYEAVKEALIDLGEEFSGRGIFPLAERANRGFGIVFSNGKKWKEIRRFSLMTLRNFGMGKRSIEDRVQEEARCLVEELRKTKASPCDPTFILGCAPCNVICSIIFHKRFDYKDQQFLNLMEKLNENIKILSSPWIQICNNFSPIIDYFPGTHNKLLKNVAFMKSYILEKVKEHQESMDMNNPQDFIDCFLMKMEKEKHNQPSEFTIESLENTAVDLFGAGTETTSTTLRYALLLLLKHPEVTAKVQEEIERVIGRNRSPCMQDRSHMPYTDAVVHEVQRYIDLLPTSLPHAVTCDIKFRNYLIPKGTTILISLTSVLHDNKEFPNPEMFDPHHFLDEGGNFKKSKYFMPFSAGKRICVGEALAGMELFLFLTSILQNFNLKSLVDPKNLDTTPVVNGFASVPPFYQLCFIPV
human GPR40 receptor, sequence (O14842 whole entry): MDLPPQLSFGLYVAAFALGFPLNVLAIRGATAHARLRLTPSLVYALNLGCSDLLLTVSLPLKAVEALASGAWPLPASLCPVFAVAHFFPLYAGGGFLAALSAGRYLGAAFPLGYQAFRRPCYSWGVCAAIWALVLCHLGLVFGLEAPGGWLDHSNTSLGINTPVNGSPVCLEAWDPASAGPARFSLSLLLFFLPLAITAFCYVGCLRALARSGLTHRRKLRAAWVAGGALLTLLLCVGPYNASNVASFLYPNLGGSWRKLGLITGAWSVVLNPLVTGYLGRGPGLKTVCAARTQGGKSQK

Question: With `CC(C)c1ccccc1-c1cccc2c1CC[C@H]2Nc1cnc2c(c1)OCC2CC(=O)O` (stereo partly drawn) [Example 129, 2-(6-{[(1R)-4-[2-(Propan-2-yl)phenyl]-2,3-dihydro-1H-inden-1-yl]amino}-2H,3H-furo[3,2-b]pyridin-3-yl)acetic acid] as the compound, how does the IC50 [1] read?
Answer: 12 µM

Question: And the EC50 (human GPR40 receptor)?
Answer: 0.184 µM

Question: And the solubility at 24 h [2]?
Answer: 4 µg/mL (≈ 9.33 µM)

Question: And the IC50 (CYP2C9)?
Answer: 50 µM
